The values that follow come from patent publication US10899741B2, “3,4-bipyridyl pyrazole derivative, and preparation method therefor and medical application thereof” (Jiangsu Hengrui Medicine Co., Ltd., priority 2016, dated 2021).

One data set deals with recombinant human VEGFR2 (Homo sapiens (Human), UniProt P35968). Kind of data set: Inhibition of VEGFR2 kinase activity (Z'-LYTE kit). Type of data set: biochemical. The settings on record: ATP 50 μM, 25° C. 2 hours. Here is the method: The inhibition effect of VEGFR2 kinase activity in vitro was determined by the following method.
The inhibition effect of the compounds of the present invention on VEGFR2 kinase activity was determined by the following experimental method:
Z'-LYTEC® Kinase Assay Kit—Tyrosine 1 Peptide (PV3190, Invitrogen) was used to assay enzyme activity. 5 μl of recombinant human VEGFR2 enzyme (PV3660, Invitrogen) and VEGFR2 substrate polypeptide (in the reaction system, the final concentration of enzyme was 0.14 ng/μL, and the final concentration of substrate was 2 μM) formulated with reaction buffer (50 mM HEPES pH7.5, 10 mM MgCl2, 1 mM EGTA, 0.05% BRIJ-35), 2.5 μl of a 2-fold gradient dilution of the compounds dissolved in 5% DMSO, and 2.5 μL of ATP solution (the final concentration of ATP was 50 μM) were added successively to a 384-well plate (4513, Corning). After reaction at 25° C. for 2 hours, 5 μL of detection reagent was added to each well. After the plate was placed at 25° C. for 1 hour, the fluorescence signal values at emission wavelengths of 445 nm and 520 nm were measured with a NOVOstar (BMG) multi-function microplate reader. The IC50 values of the compounds for enzyme inhibition were calculated using Graphpad prism software based on each concentration of the compound and the corresponding signal value thereof.

The nature of data set [1]: Toxicity assay, repeated intragastrical administration to SD rats for 7 days. The class given is in vivo. Particulars: 30 and 100 mg/kg qd. Here is the method:
Evaluation of the toxicity of TGFβ inhibitor Compound 1 repeatedly intragastrically administered to SD rats for 7 days.
Twenty six SPF grade SD rats (approximately 180˜200 g, 6-7 weeks old, half male and half female) were purchased from Shanghai Jiesijie Laboratory Animal Co., Ltd.
Feeding conditions: SPF grade, animals were housed in plastic transparent rat cages, and 2-3 rats per cage. Room temperature: 20-26° C., relative humidity: 40-70%. 12 hours light/12 hours dark were alternated. The rats had free access to pellet feed for rats. The rats had free access to high-temperature sterilized water via drinking bottle.
The animals were divided randomly into 5 groups, i.e. solvent control group, compound 1—30 mg/kg group, compound 1—100 mg/kg group, and the corresponding toxicokinetics groups. There were 6 rats in solvent control group, compound 1—30 mg/kg group and compound 1—100 mg/kg group, and there were 4 rats in each corresponding toxicokinetics groups, half male and half female.
The dose of the test compound in the 7-day toxicity assay in rats was 30 and 100 mg/kg (qd), respectively, and the administration was continued for 7 days. Administration route: intragastrical administration, administration dosage: 10 ml/kg, administration frequency and administration period: daily morning administration, continuous administration for 7 days.
The results of various indicators were entered into computer Excel and entered and processed by SPSS software package.
The clinical symptom, food intake and anatomical gross observation were not processed statistically, and only the observation data of the observation items in the protocol were listed. Indicators such as body weight, organ weight, and clinical examination were processed statistically using SPSS.

The subject of data set [2] is murine melanoma cell B16-F1 xenograft. Kind of data set: Therapeutic effect on B16-F1 xenograft C57 mice. Type of data set: in vivo. Here is the method: Evaluation of the inhibition effect of the compound of Example 1 on the growth of murine melanoma cell B16-F1 xenograft on C57 mice.
Compound 1 was formulated into a 5 mg/ml aqueous solution using 0.5% CMC-Na+0.25% (v/v) Polysorbate 80. The administration concentration was 50 mg/kg, and the oral volume for intragastrical administration was 10 ml/kg.
Female C57BL/6J mice for laboratory use were purchased from SINO-BRITISH SIPPR/BK LAB. ANIMAL LTD., CO (Shanghai, China, Certificate No.: SCXK (Shanghai) 2008-0016), and the body weight of mice was from 16 to 20 g when purchased. After the animals were purchased, the test was started after 3 days of adaptive feeding. Feeding conditions: SPF grade. Animal feeding method: 12/12 hours light/dark cycle, temperature 23±1° C., humidity 40-50%, the animals were fed with standard sterilized murine feed, and had free access to food and water.
The C57 mice after adaptive feeding were fasted overnight in a metabolic cage, and divided randomly into the following groups after weighing: blank control group and Compound 1 group, 10 mice per group. The skin preparation on the right flank of C57 mice was carried out one day in advance, B16-F1 cells were subcutaneously inoculated ([…] cells per mouse), and administration was started on the third day after inoculation. Each mouse was intragastrically administrated with Compound 1 (i.g., 10 ml/kg) twice a day, and the blank group was intragastrically administrated with the corresponding solvent. The tumor volume was measured twice a week, the body weight was weighed and the data were recorded.
Excel statistical software was used: the average value was calculated by avg; the SD value was calculated by STDEV; the SEM value was calculated as STDEV/SQRT: the difference between the groups P value was calculated by TTEST.
The calculation formula of tumor volume (V) is: V=½×Llength×Lshort^2
Tumor inhibition rate (%)==(C−T)/C (%)
Wherein V0 and VT are the tumor volumes at the beginning of the test and at the end of the test, respectively. C and T are the average tumor volumes of the Blank group and the test group at the end of the test, respectively.

The next data set has as its target TGFβRI kinase ALK5 (Homo sapiens (Human), UniProt P36897). Kind of data set: Inhibition of TGFβRI kinase ALK5 activity (ADP-Glo kit). Type of data set: biochemical. Particulars: ATP 50 μM, 27° C. 2.5 hours. As to the method:
The inhibition effect of TGFβRI kinase activity in vitro was determined by the following method.
The inhibition effect of the compounds of the present invention on TGFβRI kinase ALK5 activity was determined by the following experimental method:
TGFβRI kinase assay kit (V4093, Promega) was used to assay enzyme activity. 2 μl of enzyme solution (the final concentration of enzyme in the reaction system was 2 ng/μL) formulated with reaction buffer (40 mM Tris pH 7.5, 20 mM MgCl2, 0.1 mg/ml BSA), 1 μl of a 3-fold gradient dilution of the compounds dissolved in 5% DMSO, and 2 μl of a mixed solution of ATP and TGFβRI substrate peptide (the final concentration of ATP was 50 μM, and the final concentration of substrate was 0.2 μg/μL) were added successively to a 384-well plate (4514, Corning). After reaction at 27° C. for 2.5 hours, 5 μl of ADP-Glo solution in the kit was added to each well, then the plate was placed at 27° C. for 40 minutes. 10 μl of kinase assay reagent was then added to each well, then the plate was placed at 27° C. for 30 minutes. The chemiluminescence signal values were measured with a Victor 3 (PerkinElmer) multi-function microplate reader. The IC50 values of the compounds for enzyme inhibition were calculated using Graphpad prism software based on each concentration of the compound and the corresponding signal value thereof.
A general note: ADP-Glo first removes unused ATP, then detects ADP through luciferase.

Sequence of recombinant human VEGFR2 (P35968 20-1356): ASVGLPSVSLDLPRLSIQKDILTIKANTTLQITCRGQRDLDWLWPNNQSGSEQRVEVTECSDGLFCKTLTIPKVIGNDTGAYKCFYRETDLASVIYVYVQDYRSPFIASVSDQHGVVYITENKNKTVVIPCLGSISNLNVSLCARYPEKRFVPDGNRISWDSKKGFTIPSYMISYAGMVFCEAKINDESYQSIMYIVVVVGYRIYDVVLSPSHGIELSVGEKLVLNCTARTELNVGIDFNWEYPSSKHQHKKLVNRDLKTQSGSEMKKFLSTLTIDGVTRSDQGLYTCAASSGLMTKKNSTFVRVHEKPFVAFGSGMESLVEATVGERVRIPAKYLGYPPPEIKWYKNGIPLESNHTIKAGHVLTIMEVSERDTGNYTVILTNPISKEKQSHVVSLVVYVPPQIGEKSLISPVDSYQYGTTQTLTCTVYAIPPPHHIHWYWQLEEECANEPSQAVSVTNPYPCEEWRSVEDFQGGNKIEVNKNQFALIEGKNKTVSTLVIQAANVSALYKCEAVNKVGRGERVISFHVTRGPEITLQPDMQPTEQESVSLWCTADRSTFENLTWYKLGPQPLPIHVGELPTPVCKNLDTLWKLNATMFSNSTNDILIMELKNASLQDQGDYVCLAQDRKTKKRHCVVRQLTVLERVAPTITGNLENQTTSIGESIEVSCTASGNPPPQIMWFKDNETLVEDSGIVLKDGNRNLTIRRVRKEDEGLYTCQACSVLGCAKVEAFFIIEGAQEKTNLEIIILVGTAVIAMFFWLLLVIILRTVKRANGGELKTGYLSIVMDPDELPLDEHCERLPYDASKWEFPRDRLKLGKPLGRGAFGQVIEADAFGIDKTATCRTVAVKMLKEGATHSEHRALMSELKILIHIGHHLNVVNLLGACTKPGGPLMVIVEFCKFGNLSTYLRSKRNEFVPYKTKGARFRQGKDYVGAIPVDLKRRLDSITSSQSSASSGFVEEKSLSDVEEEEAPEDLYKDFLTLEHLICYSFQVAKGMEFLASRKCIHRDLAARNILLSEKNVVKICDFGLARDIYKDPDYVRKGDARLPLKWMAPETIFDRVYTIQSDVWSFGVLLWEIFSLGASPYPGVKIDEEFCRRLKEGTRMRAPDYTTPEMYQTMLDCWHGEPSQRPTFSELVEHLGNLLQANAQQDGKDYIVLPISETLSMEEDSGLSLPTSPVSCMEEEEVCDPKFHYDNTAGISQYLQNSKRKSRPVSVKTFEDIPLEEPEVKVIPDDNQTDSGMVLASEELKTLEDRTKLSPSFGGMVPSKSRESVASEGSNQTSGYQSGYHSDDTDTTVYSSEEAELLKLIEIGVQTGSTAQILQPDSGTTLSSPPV
Sequence of TGFβRI kinase ALK5 (P36897 34-503): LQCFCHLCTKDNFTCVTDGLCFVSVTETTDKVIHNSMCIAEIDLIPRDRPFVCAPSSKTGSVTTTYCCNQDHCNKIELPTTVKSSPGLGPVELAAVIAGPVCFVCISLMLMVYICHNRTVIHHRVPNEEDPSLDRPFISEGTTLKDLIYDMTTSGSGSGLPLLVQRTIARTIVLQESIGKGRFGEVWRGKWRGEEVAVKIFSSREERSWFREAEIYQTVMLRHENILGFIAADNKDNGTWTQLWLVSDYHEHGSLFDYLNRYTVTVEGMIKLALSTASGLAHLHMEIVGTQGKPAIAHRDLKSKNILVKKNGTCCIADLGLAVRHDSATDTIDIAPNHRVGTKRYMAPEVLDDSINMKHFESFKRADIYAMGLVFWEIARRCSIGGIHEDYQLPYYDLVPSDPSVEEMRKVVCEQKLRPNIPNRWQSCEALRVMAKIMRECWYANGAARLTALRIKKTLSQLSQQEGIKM

In the case of `Cc1cccc(-c2nn(C3CCC3)cc2-c2ccnc(-c3ccc(S(C)(=O)=O)cc3)c2)n1` [Example 1, 4-(1-Cyclobutyl-3-(6-methylpyridin-2-yl)-1H-pyrazol-4-yl)-2-(4-(methylsulfonyl)phenyl)pyridine], the IC50 (in general, the concentration needed to halve the response being measured) on recombinant human VEGFR2 amounted to 2.5 µM. In data set [1] (7 days), the Blood biochemical indicators entry was “No toxicological changes”; the “Coagulation function and urine indexes compared with the solvent control group” value is listed as “no obvious abnormalities”; the Food intake result was “no obvious change”; the “Safety under the conditions of this assay” value is “good safety”. Besides, the “Clinical observation of the animals during the administration” value in data set [1] (7 days, intragastrical) is “no obvious abnormality”. Further, the “Body weight and body weight growth rate compared with the solvent control group” value in data set [1] (7 days, p>0.05) is on record as “no significant difference”. The “Gross pathological anatomy (autopsy)” value in data set [1] (after the last administration) was “no obvious abnormalities”. Further, the “Effect on the body weight of the mice” value in data set [2] (50 mg/kg i.g. twice a day) is listed as “no effect”. In data set [2] (Day 19, 50 mg/kg i.g. twice a day), the “Tumor volume compared with the blank control group” value is “significantly smaller”. Besides, in data set [2] (d0, 50 mg/kg po bid/20d), the “Average tumor volume d0” value stood at 0.00 mm^3. In data set [2] (d22, 50 mg/kg po bid/20d), the “Average tumor volume d22” value turned out to be 301.53 mm^3. The same compound gave a half-maximal inhibitory concentration (IC50) at TGFβRI kinase ALK5 of 208 nM.
As to `Cc1cccc(-c2nn(C3CC3)cc2-c2ccnc(-c3ccc(S(C)(=O)=O)cc3)c2)n1` [Example 2, 4-(1-Cyclopropyl-3-(6-methylpyridin-2-yl)-1H-pyrazol-4-yl)-2-(4-(methylsulfonyl)phenyl)pyridine], the IC50 on recombinant human VEGFR2 was determined as 4.2 µM; against TGFβRI kinase ALK5, 270 nM.
